Literature values as cited in US7704724B1 (priority 2006, dated 2010).

What was measured:
Jack Bean urease = Jack Bean urease (Canavalia ensiformis, UniProt P07374); conditions: read-out: fluoride inhibition constant (Ki)
[1] = biological target: urease from Klebsiella aerogenes (Klebsiella aerogenes, UniProt P18314); conditions: read-out: fluoride inhibition constant (Ki)
Sequence of urease from Klebsiella aerogenes (P18314 whole entry): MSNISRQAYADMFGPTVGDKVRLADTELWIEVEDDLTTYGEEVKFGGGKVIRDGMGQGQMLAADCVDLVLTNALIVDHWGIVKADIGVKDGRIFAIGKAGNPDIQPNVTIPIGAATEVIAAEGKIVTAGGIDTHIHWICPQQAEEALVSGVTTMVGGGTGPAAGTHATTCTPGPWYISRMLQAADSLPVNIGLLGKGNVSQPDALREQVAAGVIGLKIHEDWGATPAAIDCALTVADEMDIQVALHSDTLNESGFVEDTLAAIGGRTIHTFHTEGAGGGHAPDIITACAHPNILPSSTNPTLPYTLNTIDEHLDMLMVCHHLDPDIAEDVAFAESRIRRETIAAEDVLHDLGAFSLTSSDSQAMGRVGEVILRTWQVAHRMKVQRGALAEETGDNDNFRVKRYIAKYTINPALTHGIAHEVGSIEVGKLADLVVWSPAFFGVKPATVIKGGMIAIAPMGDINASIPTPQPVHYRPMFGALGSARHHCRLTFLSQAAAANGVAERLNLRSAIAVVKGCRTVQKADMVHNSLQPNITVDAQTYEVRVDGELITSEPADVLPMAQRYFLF
Sequence of urease from Klebsiella aerogenes (P18315 whole entry partner): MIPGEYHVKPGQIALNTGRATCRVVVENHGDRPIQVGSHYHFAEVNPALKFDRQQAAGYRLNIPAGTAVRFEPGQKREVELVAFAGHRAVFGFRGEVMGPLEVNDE
Sequence of urease from Klebsiella aerogenes (P18316 whole entry partner): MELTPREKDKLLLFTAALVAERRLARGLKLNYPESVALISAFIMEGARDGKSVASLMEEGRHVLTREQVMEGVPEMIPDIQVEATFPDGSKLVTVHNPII

Sequence of Jack Bean urease (P07374 whole entry, looked up): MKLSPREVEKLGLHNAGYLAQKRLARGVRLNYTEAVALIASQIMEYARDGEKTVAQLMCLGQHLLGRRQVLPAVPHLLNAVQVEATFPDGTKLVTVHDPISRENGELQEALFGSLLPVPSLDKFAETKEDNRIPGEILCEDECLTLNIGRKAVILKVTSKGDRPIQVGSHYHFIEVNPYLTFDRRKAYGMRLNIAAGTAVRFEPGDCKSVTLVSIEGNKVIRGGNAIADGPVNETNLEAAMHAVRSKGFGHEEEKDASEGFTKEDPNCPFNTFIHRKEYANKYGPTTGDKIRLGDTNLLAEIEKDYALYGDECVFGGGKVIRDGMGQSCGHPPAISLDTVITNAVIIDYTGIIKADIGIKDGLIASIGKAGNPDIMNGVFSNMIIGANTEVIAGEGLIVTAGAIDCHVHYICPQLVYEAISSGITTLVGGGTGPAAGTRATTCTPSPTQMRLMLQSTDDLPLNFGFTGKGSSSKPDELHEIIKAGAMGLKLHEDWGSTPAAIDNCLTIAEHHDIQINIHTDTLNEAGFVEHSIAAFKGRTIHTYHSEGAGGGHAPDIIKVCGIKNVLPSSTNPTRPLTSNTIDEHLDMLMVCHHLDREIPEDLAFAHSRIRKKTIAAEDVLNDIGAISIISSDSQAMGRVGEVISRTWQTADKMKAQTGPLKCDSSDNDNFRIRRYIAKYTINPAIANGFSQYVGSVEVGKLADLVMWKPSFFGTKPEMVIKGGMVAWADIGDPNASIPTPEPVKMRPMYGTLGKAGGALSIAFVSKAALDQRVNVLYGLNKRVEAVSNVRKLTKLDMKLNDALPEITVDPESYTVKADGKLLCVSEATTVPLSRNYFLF

## F [fluoride]
Jack Bean urease
  Ki: 1000 µM
[1]
  Ki: 200 µM
